The target of one test is T1, EGFR mutant L858R (Homo sapiens, UniProt P00533, L858R).
T1 construct: truncated human JAK3, EGFR mutants such as del E746-A750; purchased Carna Biosciences
The test is described as follows: Kinase inhibition assay, EGFR L858R.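 Further: truncated human EGFR L858R kinase with compound preincubation, ULight-PolyGT peptide phosphorylation read by Europium-antibody Lance detection, IC50.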 Particulars: read-out: EGFR mutants L858R. Format: biochemical.

For test [1], the target named is T2, EGFR mutant Del19 (E746-A750) (Homo sapiens, UniProt P00533, DEL746-750).
T2 construct: truncated human JAK3, EGFR mutants such as del E746-A750; purchased Carna Biosciences
Put plainly: Kinase inhibition assay, EGFR del E746-A750.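 Further: truncated human EGFR mutant kinase, two-hour preincubation with compound, then one-hour reaction with ATP and ULight-PolyGT peptide, LANCE Europium-antibody phosphorylation readout, IC50.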 Particulars: read-out: EGFR mutants Del19 (E746-A750). Format: biochemical.

In another test the target is T3, SYK (Homo sapiens, UniProt P43405).
T3 construct: Purified human, full-length SYK, KDR; purchased Carna Biosciences
The test is described as follows: Kinase inhibition assay, SYK.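 Further: purified full-length human SYK pre-incubated 30 min with compound, then ULight-TK peptide phosphorylation for 1 h, detected with Europium-labeled antibody in Lance buffer.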 The test is classed as biochemical. The conditions noted are these: biochemical potency.

The next test concerns the target T4, EGFR mutant L858R/T790M (Homo sapiens, UniProt P00533, L858R/T790M).
T4 construct: truncated human JAK3, EGFR mutants such as del E746-A750; purchased Carna Biosciences
The test is described as follows: Kinase inhibition assay, EGFR L858R/T790M.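 Further: truncated human enzyme preincubated two hours with compound, then one hour with one millimolar ATP and ULight-PolyGT peptide, Europium-labeled antibody detection, IC50.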 Particulars: read-out: EGFR mutants L858R/T790M. The test is classed as biochemical.

The target of another test is T5, EGFR mutant Del19/T790M (Homo sapiens, UniProt P00533, DEL746-750/T790M).
T5 construct: truncated human JAK3, EGFR mutants such as del E746-A750; purchased Carna Biosciences
The test is described as follows: Kinase inhibition assay, EGFR del E746-A750/T790M. The test is classed as biochemical. Particulars: read-out: EGFR mutants Del19/T790M.

The target in another test is T6, EGFR mutant T790M (Homo sapiens, UniProt P00533, T790M).
T6 construct: truncated human JAK3, EGFR mutants such as del E746-A750; purchased Carna Biosciences
The test is described as follows: Kinase inhibition assay, EGFR mutant T790M.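 Further: truncated human EGFR mutant enzyme preincubated two hours with compound, then ATP plus ULight-PolyGT peptide for one hour, Europium-labeled antibody LANCE detection, IC50.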 The conditions noted are these: biochemical potency.

T1 sequence (P00533 669-1210 L858R limits assumed): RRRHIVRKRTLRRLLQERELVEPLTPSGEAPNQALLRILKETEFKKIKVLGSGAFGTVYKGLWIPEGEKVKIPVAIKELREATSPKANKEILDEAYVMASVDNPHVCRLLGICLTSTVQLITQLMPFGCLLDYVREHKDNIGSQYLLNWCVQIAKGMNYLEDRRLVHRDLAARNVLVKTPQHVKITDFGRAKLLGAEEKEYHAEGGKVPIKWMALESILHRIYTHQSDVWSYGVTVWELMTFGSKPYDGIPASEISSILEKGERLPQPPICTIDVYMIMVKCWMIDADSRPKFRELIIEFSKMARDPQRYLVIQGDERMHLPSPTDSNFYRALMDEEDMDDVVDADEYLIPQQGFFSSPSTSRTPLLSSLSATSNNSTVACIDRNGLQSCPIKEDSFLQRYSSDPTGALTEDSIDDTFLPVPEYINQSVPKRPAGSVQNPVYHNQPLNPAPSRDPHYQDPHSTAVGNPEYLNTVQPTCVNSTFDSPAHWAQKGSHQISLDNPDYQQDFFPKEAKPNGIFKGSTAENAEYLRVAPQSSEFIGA
T6 sequence (P00533 669-1210 T790M limits assumed): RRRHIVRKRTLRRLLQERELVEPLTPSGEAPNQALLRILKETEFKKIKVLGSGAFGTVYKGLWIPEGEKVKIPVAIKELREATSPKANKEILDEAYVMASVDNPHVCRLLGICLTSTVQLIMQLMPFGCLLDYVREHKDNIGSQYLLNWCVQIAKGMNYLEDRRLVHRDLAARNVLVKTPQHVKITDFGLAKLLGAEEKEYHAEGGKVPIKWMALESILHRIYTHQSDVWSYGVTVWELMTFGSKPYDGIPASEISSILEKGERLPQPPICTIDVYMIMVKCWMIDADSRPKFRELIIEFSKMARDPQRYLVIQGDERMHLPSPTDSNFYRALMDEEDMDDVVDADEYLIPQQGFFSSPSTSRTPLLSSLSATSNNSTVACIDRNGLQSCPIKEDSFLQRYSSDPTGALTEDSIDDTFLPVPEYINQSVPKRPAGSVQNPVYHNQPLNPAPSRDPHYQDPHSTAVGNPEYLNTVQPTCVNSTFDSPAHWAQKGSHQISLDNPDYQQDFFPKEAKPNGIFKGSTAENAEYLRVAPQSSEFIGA
T5 sequence (P00533 with tags, fused parts or gaps DEL746-750/T790M limits assumed): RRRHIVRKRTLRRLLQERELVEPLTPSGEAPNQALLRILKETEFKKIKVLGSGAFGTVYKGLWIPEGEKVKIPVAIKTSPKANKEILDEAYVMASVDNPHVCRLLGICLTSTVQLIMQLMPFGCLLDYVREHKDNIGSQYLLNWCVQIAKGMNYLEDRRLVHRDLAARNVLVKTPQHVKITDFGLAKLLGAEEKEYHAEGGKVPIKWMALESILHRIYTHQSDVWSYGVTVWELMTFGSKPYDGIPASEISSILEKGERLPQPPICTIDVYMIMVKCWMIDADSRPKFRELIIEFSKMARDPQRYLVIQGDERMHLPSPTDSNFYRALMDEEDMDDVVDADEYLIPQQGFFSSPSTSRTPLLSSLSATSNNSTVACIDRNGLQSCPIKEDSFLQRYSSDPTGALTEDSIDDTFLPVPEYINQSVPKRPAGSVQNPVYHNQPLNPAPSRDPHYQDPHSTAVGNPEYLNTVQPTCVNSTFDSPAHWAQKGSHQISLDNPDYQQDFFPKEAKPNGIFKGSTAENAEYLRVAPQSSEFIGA
T2 sequence (P00533 with tags, fused parts or gaps DEL746-750 limits assumed): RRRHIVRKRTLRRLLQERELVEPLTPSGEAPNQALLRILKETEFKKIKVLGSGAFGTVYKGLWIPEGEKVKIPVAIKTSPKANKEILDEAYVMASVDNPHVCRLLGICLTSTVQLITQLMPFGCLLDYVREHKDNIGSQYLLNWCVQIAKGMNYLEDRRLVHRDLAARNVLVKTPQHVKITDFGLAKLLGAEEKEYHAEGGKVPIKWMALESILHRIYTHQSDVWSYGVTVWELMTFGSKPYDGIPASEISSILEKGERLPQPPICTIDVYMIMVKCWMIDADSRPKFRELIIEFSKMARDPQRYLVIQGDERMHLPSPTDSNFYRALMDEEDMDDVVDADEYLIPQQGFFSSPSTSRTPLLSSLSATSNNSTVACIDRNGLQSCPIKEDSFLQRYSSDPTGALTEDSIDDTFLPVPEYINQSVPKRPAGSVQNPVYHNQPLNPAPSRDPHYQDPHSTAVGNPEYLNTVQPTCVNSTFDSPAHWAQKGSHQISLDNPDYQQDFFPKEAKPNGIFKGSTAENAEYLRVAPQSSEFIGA
T4 sequence (P00533 669-1210 T790M/L858R limits assumed): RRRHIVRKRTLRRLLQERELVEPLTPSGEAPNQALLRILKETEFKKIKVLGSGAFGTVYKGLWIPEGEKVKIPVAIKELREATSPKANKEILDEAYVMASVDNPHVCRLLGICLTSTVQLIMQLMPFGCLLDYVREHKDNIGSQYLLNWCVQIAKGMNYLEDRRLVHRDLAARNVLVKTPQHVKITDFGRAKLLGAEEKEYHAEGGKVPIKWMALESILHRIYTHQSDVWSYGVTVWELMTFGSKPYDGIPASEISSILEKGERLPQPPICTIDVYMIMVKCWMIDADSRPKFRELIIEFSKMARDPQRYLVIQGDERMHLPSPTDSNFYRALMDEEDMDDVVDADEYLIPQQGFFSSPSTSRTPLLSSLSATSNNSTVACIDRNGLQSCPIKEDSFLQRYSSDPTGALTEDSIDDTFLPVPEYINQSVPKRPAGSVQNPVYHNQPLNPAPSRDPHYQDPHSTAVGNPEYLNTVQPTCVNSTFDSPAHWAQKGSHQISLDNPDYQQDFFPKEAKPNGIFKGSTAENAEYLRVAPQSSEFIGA

Turning to `C=CC(=O)Nc1cc(Nc2nccc(-n3cc(CN4C[C@H](O)[C@H](OC)C4)c(C)n3)n2)c(OC)cc1N1CCOCC1` [Compound 45, N-(5-(4-(4-(((3S,4R)-3-hydroxy-4-methoxypyrrolidin-1-yl)methyl)-3-methyl-1H-pyrazol-1-yl)pyrimidin-2-ylamino)-4-methoxy-2-morpholinophenyl)acrylamide], the IC50 is 20 to 200 nM on EGFR mutant L858R; under 20 nM in test [1]; over 1000 nM at SYK; under 20 nM on EGFR mutant L858R/T790M; under 20 nM at EGFR mutant Del19/T790M; 20 to 200 nM against EGFR mutant T790M.

In the case of `C=CC(=O)Nc1cc(Nc2ncc(Cl)c(-n3cc(CN4C[C@H](O)[C@H](OC)C4)c(C)n3)n2)c(OC)cc1N1CCOCC1` [Compound 51, N-(5-(5-chloro-4-(4-(((3S,4R)-3-hydroxy-4-methoxypyrrolidin-1-yl)methyl)-3-methyl-1H-pyrazol-1-yl)pyrimidin-2-ylamino)-4-methoxy-2-morpholinophenyl)acrylamide], the IC50 was 20 to 200 nM on EGFR mutant L858R; 20 to 200 nM in test [1]; over 1000 nM on SYK; under 20 nM on EGFR mutant L858R/T790M; under 20 nM at EGFR mutant Del19/T790M; under 20 nM against EGFR mutant T790M.

On to `C=CC(=O)Nc1cc(Nc2ncc(Cl)c(-n3cc(CN(C)C)c(C)n3)n2)c(OC)cc1N1CCOCC1` [Compound 52, N-(5-(5-chloro-4-(4-((dimethylamino)methyl)-3-methyl-1H-pyrazol-1-yl)pyrimidin-2-ylamino)-4-methoxy-2-morpholinophenyl)acrylamide], for which the IC50 was under 20 nM on EGFR mutant L858R; under 20 nM in test [1]; 201 to 1000 nM against SYK; under 20 nM on EGFR mutant L858R/T790M; under 20 nM on EGFR mutant Del19/T790M; under 20 nM at EGFR mutant T790M.

`C=CC(=O)Nc1cc(Nc2nccc(-n3cc(CN4C[C@H](O)[C@H](OC)C4)c(C4CC4)n3)n2)c(OC)cc1N1CCOCC1` [Compound 56, N-(5-(4-(3-cyclopropyl-4-(((3S,4R)-3-hydroxy-4-methoxypyrrolidin-1-yl)methyl)-1H-pyrazol-1-yl)pyrimidin-2-ylamino)-4-methoxy-2-morpholinophenyl)acrylamide]: the IC50 at EGFR mutant L858R is under 20 nM; in test [1] it was under 20 nM; against SYK, over 1000 nM; at EGFR mutant L858R/T790M, under 20 nM; on EGFR mutant Del19/T790M, under 20 nM; against EGFR mutant T790M it was under 20 nM.

Take `C=CC(=O)Nc1cc(Nc2nccc(-n3cc(CN4CCC4)c(C)n3)n2)c(OC)cc1C1=CCN(C)CC1` [Compound 59, N-(5-(4-(4-(azetidin-1-ylmethyl)-3-methyl-1H-pyrazol-1-yl)pyrimidin-2-ylamino)-4-methoxy-2-(1-methyl-1,2,3,6-tetrahydropyridin-4-yl)phenyl)acrylamide]: the IC50 is under 20 nM at EGFR mutant L858R; under 20 nM in test [1]; over 1000 nM against SYK; under 20 nM on EGFR mutant L858R/T790M; under 20 nM at EGFR mutant Del19/T790M; under 20 nM against EGFR mutant T790M.

In the case of `C=CC(=O)Nc1cc(Nc2ncc(F)c(-n3cc(C)c(CN4CCC4)c3)n2)c(OC)cc1N1CCOCC1` [Compound 60, N-(5-(4-(3-(azetidin-1-ylmethyl)-4-methyl-1H-pyrrol-1-yl)-5-fluoropyrimidin-2-ylamino)-4-methoxy-2-morpholinophenyl)acrylamide], the IC50 was 20 to 200 nM at EGFR mutant L858R; under 20 nM in test [1]; over 1000 nM at SYK; under 20 nM on EGFR mutant L858R/T790M; under 20 nM at EGFR mutant Del19/T790M; 20 to 200 nM on EGFR mutant T790M.

As for `C=CC(=O)Nc1cc(Nc2ncc(C)c(-n3cc(CN4CCC4)cn3)n2)c(OC)cc1C1=CCN(C)CC1` [Compound 64, N-(5-(4-(4-(azetidin-1-ylmethyl)-1H-pyrazol-1-yl)-5-methylpyrimidin-2-ylamino)-4-methoxy-2-(1-methyl-1,2,3,6-tetrahydropyridin-4-yl)phenyl)acrylamide], the IC50 is 20 to 200 nM at EGFR mutant L858R; under 20 nM in test [1]; over 1000 nM on SYK; under 20 nM at EGFR mutant L858R/T790M; under 20 nM on EGFR mutant Del19/T790M; under 20 nM against EGFR mutant T790M.

As to `C=CC(=O)Nc1cc(Nc2ncc(C)c(-n3cc(CN4CCC4)c(C(C)(C)C)n3)n2)c(OC)cc1N1CCOCC1` [Compound 67, N-(5-(4-(4-(azetidin-1-ylmethyl)-3-tert-butyl-1H-pyrazol-1-yl)-5-methylpyrimidin-2-ylamino)-4-methoxy-2-morpholinophenyl)acrylamide], the IC50 on EGFR mutant L858R was under 20 nM; in test [1], under 20 nM; on SYK, over 1000 nM; at EGFR mutant L858R/T790M, under 20 nM; on EGFR mutant Del19/T790M it was under 20 nM; against EGFR mutant T790M it was 20 to 200 nM.

As to `C=CC(=O)Nc1cc(Nc2ncc(Cl)c(-n3cc(CN(C)C)cn3)n2)c(OC)cc1N1CCOCC1` [Compound 77, N-(5-(5-chloro-4-(4-((dimethylamino)methyl)-1H-pyrazol-1-yl)pyrimidin-2-ylamino)-4-methoxy-2-morpholinophenyl)acrylamide], the IC50 at EGFR mutant L858R was under 20 nM; in test [1], under 20 nM; on SYK it was 201 to 1000 nM; on EGFR mutant L858R/T790M, under 20 nM; at EGFR mutant Del19/T790M, under 20 nM; on EGFR mutant T790M it was under 20 nM.

In the case of `C=CC(=O)Nc1cc(Nc2nccc(-n3cc(CN(C)C)c(-c4ccc(C)cc4)n3)n2)c(OC)cc1N1CCOCC1` [Compound 80, N-(5-(4-(4-((dimethylamino)methyl)-3-p-tolyl-1H-pyrazol-1-yl)pyrimidin-2-ylamino)-4-methoxy-2-morpholinophenyl)acrylamide], the IC50 on EGFR mutant L858R is under 20 nM; in test [1], under 20 nM; at SYK, over 1000 nM; on EGFR mutant L858R/T790M, under 20 nM; at EGFR mutant Del19/T790M it was under 20 nM; against EGFR mutant T790M, under 20 nM.

Turning to `C=CC(=O)Nc1cc(Nc2nccc(-n3cc(CN4CCC4)c(-c4ccc(F)cc4)n3)n2)c(OC)cc1N1CCOCC1` [Compound 81, N-(5-(4-(4-(azetidin-1-ylmethyl)-3-(4-fluorophenyl)-1H-pyrazol-1-yl)pyrimidin-2-ylamino)-4-methoxy-2-morpholinophenyl)acrylamide], the IC50 on EGFR mutant L858R was 20 to 200 nM; in test [1], 20 to 200 nM; at SYK, over 1000 nM; on EGFR mutant L858R/T790M, 20 to 200 nM; at EGFR mutant Del19/T790M, 20 to 200 nM; against EGFR mutant T790M it was 201 to 1000 nM.

Consider `C=CC(=O)Nc1cc(Nc2nccc(-n3cc(CN(C)C)c(-c4ccccc4)n3)n2)c(OC)cc1N(C)C` [Compound 83, N-(2-(dimethylamino)-5-(4-(4-((dimethylamino)methyl)-3-phenyl-1H-pyrazol-1-yl)pyrimidin-2-ylamino)-4-methoxyphenyl)acrylamide], for which the IC50 at EGFR mutant L858R was under 20 nM; in test [1] it was under 20 nM; against SYK it was over 1000 nM; on EGFR mutant L858R/T790M, under 20 nM; on EGFR mutant Del19/T790M it was under 20 nM; against EGFR mutant T790M, under 20 nM.

For the molecule `C=CC(=O)Nc1cc(Nc2nccc(-n3cc(CN4CCC4)c(-c4ccccc4)n3)n2)c(OC)cc1N1CCC1` [Compound 87, N-(2-(azetidin-1-yl)-5-(4-(4-(azetidin-1-ylmethyl)-3-phenyl-1H-pyrazol-1-yl)pyrimidin-2-ylamino)-4-methoxyphenyl)acrylamide], the IC50 is under 20 nM at EGFR mutant L858R; under 20 nM in test [1]; over 1000 nM on SYK; under 20 nM at EGFR mutant L858R/T790M; under 20 nM on EGFR mutant Del19/T790M; under 20 nM against EGFR mutant T790M.

As for `C=CC(=O)Nc1cc(Nc2nccc(-n3cc(CN(C)C)c(-c4cccs4)n3)n2)c(OC)cc1N1CCOCC1` [Compound 88, N-(5-(4-(4-((dimethylamino)methyl)-3-(thiophen-2-yl)-1H-pyrazol-1-yl)pyrimidin-2-ylamino)-4-methoxy-2-morpholinophenyl)acrylamide], the IC50 on EGFR mutant L858R is under 20 nM; in test [1] it was under 20 nM; against SYK it was 201 to 1000 nM; at EGFR mutant L858R/T790M, under 20 nM; on EGFR mutant Del19/T790M, under 20 nM; at EGFR mutant T790M, under 20 nM.

In the case of `C=CC(=O)Nc1cc(Nc2nccc(-n3cc(CN(C)C)c(-c4ccccc4)n3)n2)c(OC)cc1N(C)CCOC` [Compound 94], the IC50 is under 20 nM on EGFR mutant L858R; under 20 nM in test [1]; over 1000 nM against SYK; under 20 nM on EGFR mutant L858R/T790M; under 20 nM at EGFR mutant Del19/T790M; under 20 nM at EGFR mutant T790M.

As to `C=CC(=O)Nc1cc(Nc2nccc(-n3cc(CN4CCC4)c(-c4ccccc4)n3)n2)c(OC)cc1N(C)CCOC` [Compound 95, N-(5-(4-(4-(azetidin-1-ylmethyl)-3-phenyl-1H-pyrazol-1-yl)pyrimidin-2-ylamino)-4-methoxy-2-((2-methoxyethyl)(methyl)amino)phenyl)acrylamide], the IC50 on EGFR mutant L858R is under 20 nM; in test [1], under 20 nM; against SYK, over 1000 nM; on EGFR mutant L858R/T790M it was under 20 nM; at EGFR mutant Del19/T790M, under 20 nM; against EGFR mutant T790M, under 20 nM.

Take `C=CC(=O)Nc1cc(Nc2nccc(-n3cc(CN(C)C)c(-c4ccccc4)n3)n2)c(OC)cc1N(C)C1COC1` [Compound 96, N-(5-(4-(4-((dimethylamino)methyl)-3-phenyl-1H-pyrazol-1-yl)pyrimidin-2-ylamino)-4-methoxy-2-(methyl(oxetan-3-yl)amino)phenyl)acrylamide]: the IC50 was under 20 nM on EGFR mutant L858R; under 20 nM in test [1]; over 1000 nM against SYK; under 20 nM at EGFR mutant L858R/T790M; under 20 nM on EGFR mutant Del19/T790M; 20 to 200 nM on EGFR mutant T790M.

For the origin of these results see USRE50528E1, “Compounds and compositions for modulating EGFR mutant kinase activities” (Yuhan Corporation, priority 2014, dated 2025).
